# Tests used:
# [1] = Steady-state plasma pharmacokinetics of rifabutin and 25-O-desacetylrifabutin, alone and with lopinavir/ritonavir; conditions: for AUC: AUCτ; for C0: pre-dose
# [2] = co-administered RMP; trial protocol background; cited from earlier work
# [3] = Plasma lopinavir and ritonavir pharmacokinetics during rifabutin co-administration; conditions: for Effect of the different doses of rifabutin on plasma concentrations: rifabutin 150 mg OD vs 150 mg TPW
# [4] = parameters: method as in earlier work; conditions: study from the University of Cape Town; trial protocol background; cited from earlier work
# [5] = South Africa, cited from earlier work
# [6] = Adverse events during the trial
# [7] = rifabutin 150 mg OD with lopinavir/ritonavir, end of dosing interval 24 h, median (range)
# [8] = rifabutin 150 mg OD with lopinavir/ritonavir, median (range)
# [9] = rifabutin 150 mg TPW plus LPV/r vs rifabutin 300 mg OD alone
# [10] = rifabutin 150 mg TPW with lopinavir/ritonavir, median (range)
# [11] = rifabutin 300 mg OD alone, median (range)
# [12] = All patients, pooled whatever the RBT dosing, median (range)
# [13] = LPV/r 400 mg/100 mg twice daily with RBT 150 mg OD, median (range)
# [14] = rifabutin 150 mg OD plus LPV/r vs rifabutin 300 mg OD alone
# [15] = LPV/r 400 mg/100 mg twice daily with RBT 150 mg TPW, median (range)
compound,measurement,setting,value
25-O-desacetylrifabutin [25-O desacetyl rifabutin],Cmin n = 15,[1]; [7],114 (73 – 253) ng/mL
same,Cmin n = 25,[1]; [7],115 (59 – 253) ng/mL
same,Tmax,[1]; [8],4 (2 – 8) h
same,C0 geometric mean ratio (90% CI),[1]; [9],4.35 (3.14;6.02)
same,Cmin n = 15,"[1]; rifabutin 150 mg TPW with lopinavir/ritonavir, end of dosing interval 48 h, median (range)",67 (11 – 214) ng/mL
same,Tmax,[1]; [10],4 (2 – 6) h
same,Cmin n = 15,"[1]; rifabutin 300 mg OD alone, end of dosing interval 24 h, median (range)",6 (0 – 33) ng/mL
same,Tmax,[1]; [11],3 (0 – 5) h
"O=C1Nc2ccc(Cl)cc2[C@@](C#CC2CC2)(C(F)(F)F)O1 [EFV, efavirenz]",Reduction of bioavailability by RMP,[2],approximately 25%
Cc1cccc(C)c1OCC(=O)N[C@@H](Cc1ccccc1)[C@@H](O)C[C@H](Cc1ccccc1)NC(=O)[C@H](C(C)C)N1CCCNC1=O [Lopinavir],C0 (trough concentration),[3]; [12],8739 (<50– 31171) ng/mL
same,C0 (trough concentration),[3]; [13],9155 (399–27567) ng/mL
same,Effect of the different doses of rifabutin on plasma concentrations,[3],no significant effect
"Cc1ccnc2c1NC(=O)c1cccnc1N2C1CC1 [NVP, nevirapine]",Reduction of bioavailability by RMP,[2],35%
"CO[C@H]1/C=C/O[C@@]2(C)Oc3c(C)c(O)c4c(O)c(c(/C=N/N5CCN(C)CC5)c(O)c4c3C2=O)NC(=O)/C(C)=C\C=C\[C@H](C)[C@H](O)[C@@H](C)[C@@H](O)[C@@H](C)[C@H](OC(C)=O)[C@@H]1C [RMP, rifampicin]",Reduction of drug concentrations by HIV infection,[4],39%
CO[C@H]1/C=C/O[C@@]2(C)Oc3c(C)c(O)c4c(c3C2=O)C2=NC3(CCN(CC(C)C)CC3)NC2=C(NC(=O)/C(C)=C\C=C\[C@H](C)[C@H](O)[C@@H](C)[C@@H](O)[C@@H](C)[C@H](OC(C)=O)[C@@H]1C)C4=O [Rifabutin],Number of patients with AUCτ less than 4.5 µg.h/mL,[1]; 150 mg OD regimen with LPV/r,one
same,Number of patients with AUCτ less than 4.5 µg.h/mL,[1]; 150 mg TPW regimen with LPV/r,four
same,Number of patients with Cmax less than 0.3 µg/mL,[1]; 150 mg TPW regimen with LPV/r,one
same,Number of patients with AUCτ less than 4.5 µg.h/mL,[1]; 300 mg OD regimen alone,six
same,Tmax,"[1]; human, plasma, oral, 150 mg",3 h
same,AUC,"[1]; human, plasma, oral, 150 mg, rifabutin 150 mg OD with lopinavir/ritonavir, τ 24 h, median (range)",7290 ng·h/mL
same,AUC,"[1]; human, plasma, oral, 150 mg, rifabutin 150 mg TPW with lopinavir/ritonavir, τ 48 h, median (range)",7340 ng·h/mL
same,Cmax,"[1]; human, plasma, oral, 150 mg, rifabutin 150 mg OD with lopinavir/ritonavir, median (range)",671 ng/mL
same,Cmax,"[1]; human, plasma, oral, 150 mg, rifabutin 150 mg TPW with lopinavir/ritonavir, median (range)",544 ng/mL
same,AUC,"[1]; human, plasma, oral, 300 mg, rifabutin 300 mg OD alone, τ 24 h, median (range)",5640 ng·h/mL
same,Cmax,"[1]; human, plasma, oral, 300 mg, rifabutin 300 mg OD alone, steady state, median (range)",792 ng/mL
same,concentration at 24 h,"[1]; human, plasma, oral, Cmin n = 15, rifabutin 150 mg OD with lopinavir/ritonavir, end of dosing interval 24 h, median (range)",161 ng/mL
same,concentration at 48 h,"[1]; human, plasma, oral, Cmin n = 15, rifabutin 150 mg TPW with lopinavir/ritonavir, end of dosing interval 48 h, median (range)",54 ng/mL
same,concentration at 24 h,"[1]; human, plasma, oral, Cmin n = 15, rifabutin 300 mg OD alone, end of dosing interval 24 h, median (range)",61 ng/mL
same,concentration at 24 h,"[1]; human, plasma, oral, Cmin n = 25, rifabutin 150 mg OD with lopinavir/ritonavir, end of dosing interval 24 h, median (range)",169 ng/mL
same,concentration at 24 h,"[1]; human, plasma, oral, Cmin n = 25, rifabutin 300 mg OD alone, end of dosing interval 24 h, median (range)",79 ng/mL
same,AUCτ geometric mean ratio (90% CI),[1]; rifabutin 150 mg OD plus LPV/r (AUC24h) vs rifabutin 300 mg OD alone,1.32 (1.16;1.51)
same,C0 geometric mean ratio (90% CI),[1]; [14],2.61 (2.13;3.19)
same,Cave geometric mean ratio (90% CI),[1]; [14],1.32 (1.16;1.51)
same,Cmax geometric mean ratio (90% CI),[1]; [14],0.88 (0.75;1.04)
same,Cave (AUCτ/τ),[1]; [8],304 (147–521) ng/mL
same,C0,[1]; [8],180 (121 – 310) ng/mL
same,AUCτ geometric mean ratio (90% CI),[1]; rifabutin 150 mg TPW plus LPV/r (AUC48h) vs rifabutin 300 mg OD alone,1.12 (0.92;1.37)
same,C0 geometric mean ratio (90% CI),[1]; [9],0.94 (0.73;1.21)
same,Cave geometric mean ratio (90% CI),[1]; [9],0.56 (0.46;0.69)
same,Cmax geometric mean ratio (90% CI),[1]; [9],0.65 (0.51;0.83)
same,Decrease in average steady state concentration (Cave),[1]; rifabutin 150 mg TPW with LPV/r compared with rifabutin 300 mg alone,44%
same,Decrease in Cmax,[1]; rifabutin 150 mg TPW with LPV/r vs rifabutin monotherapy,35%
same,Cave (AUCτ/τ),[1]; [10],153 (30–227) ng/mL
same,Tmax,[1]; [10],3 (0 – 5) h
same,C0,[1]; [10],70 (25 – 413) ng/mL
same,Mean increase in average steady state concentration (Cave),[1]; rifabutin 150 mg daily with LPV/r compared with rifabutin 300 mg alone,32%
same,Cave (AUCτ/τ),[1]; [11],235 (113–370) ng/mL
same,C0,[1]; [11],74 (13 – 161) ng/mL
same,Bioequivalence of Cave with rifabutin alone (90% CI within 0.80 to 1.25),"[1]; the two tested dosing regimens (150 mg OD, 150 mg TPW) combined with lopinavir/ritonavir",failed to show bioequivalence
same,"AUCτ, median",[5]; 300 mg OD dose,3053 ng·h/mL
same,Patients with areas under the curve less than 4.5 µg.h/mL,[5]; intermittent dose (three times a week) with LPV/r,over 85%
same,Uveitis,[6]; 33 enrolled patients,no uveitis
same,Cases of neutropenia,"[6]; 33 enrolled patients, one grade 3, none grade 4",4
same,Total adverse events (all grades together),"[6]; 33 enrolled patients, rifabutin-based TB treatment with d4T/3TC/LPV/r, whole follow-up",124
same,Hepatic events with raised levels of liver enzymes,"[6]; events occurring in 25 patients, 33 in the first 2 months, 23 after rifabutin was stopped",56
CC(C)c1nc(CN(C)C(=O)N[C@H](C(=O)N[C@@H](Cc2ccccc2)C[C@H](O)[C@H](Cc2ccccc2)NC(=O)OCc2cncs2)C(C)C)cs1 [Ritonavir],C0 (trough concentration),[3]; [12],303 (25–680) ng/mL
same,C0 (trough concentration),[3]; [13],314 (25– 569) ng/mL
same,C0 (trough concentration),[3]; [15],257 (25–680) ng/mL
same,Cmax,[3]; [15],816 (405–2484) ng/ml
same,Effect of the different doses of rifabutin on plasma concentrations,[3],no significant effect
